Consider 22 compounds from patent publication US10239832B2, “N-(1-hydroxy-3-(pyrrolidinyl)propan-2-yl)pyrrolidine-3-carboxamide derivatives as glucosylceramide synthase inhibitors” (BIOMARIN PHARMACEUTICAL INC., priority 2013, dated 2019).

The test addresses T1, GCS (Canis lupus familiaris, UniProt A0A8I3MXG6).
T1 construct: endogenous in cells; host or cells: MDCK (Madin-Darby canine kidney) cells, whole-cell lysate
T1 sequence (A0A8I3MXG6 1-394): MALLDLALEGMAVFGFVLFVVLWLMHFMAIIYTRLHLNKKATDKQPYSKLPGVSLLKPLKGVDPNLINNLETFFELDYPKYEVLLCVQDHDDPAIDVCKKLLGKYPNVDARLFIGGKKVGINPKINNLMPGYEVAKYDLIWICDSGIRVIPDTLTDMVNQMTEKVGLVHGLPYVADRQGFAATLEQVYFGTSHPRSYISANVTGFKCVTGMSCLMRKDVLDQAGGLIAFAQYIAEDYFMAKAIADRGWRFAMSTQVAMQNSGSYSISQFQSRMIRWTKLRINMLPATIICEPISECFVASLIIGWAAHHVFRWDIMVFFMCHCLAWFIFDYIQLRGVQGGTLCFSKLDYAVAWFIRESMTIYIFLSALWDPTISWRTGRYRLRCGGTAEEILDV
The experiment in a line: GCS enzymatic assay (MDCK cell lysate, NBD-ceramide to glucosylceramide, LC/MS). The settings on record: Table 2, the table does not say which of the assays; for IC50: class symbols A, B, C, read-out: Data Range (IC50 values); for Data Range (% inhibition): class symbols D, E, F, NA (not active). The test is classed as biochemical, canine. Summed up:
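Dog MDCK cell lysate served as enzyme source, with NBD-ceramide turned over to glucosylceramide and 0.1% DMSO as mock control. The reaction was stopped with acetonitrile. Both lipids were quantified by LC/MS/MS in ESI positive MRM mode against a tolbutamide internal standard, giving IC50 or percent inhibition.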

Take `O=C(N[C@H](CN1CCCC1)[C@H](O)c1ccc2c(c1)OCCO2)[C@H]1CCN(c2ccc3ccsc3c2)C1` [Compound 53D, (S)-1-(benzo[b]thiophen-6-yl)-N-((1R,2R)-1-(2,3-dihydrobenzo[b][1,4]dioxin-6-yl)-1-hydroxy-3-(pyrrolidin-1-yl)propan-2-yl)pyrrolidine-3-carboxamide]: the IC50 was in the range of 1 to 30 nM. Turning to `O=C(N[C@H](CN1CCCC1)[C@H](O)c1ccc2c(c1)OCCO2)[C@H]1CCN(c2ccc3ccccc3c2)C1` [Compound 70A, (S)-N-((1R,2R)-1-(2,3-dihydrobenzo[b][1,4]dioxin-6-yl)-1-hydroxy-3-(pyrrolidin-1-yl)propan-2-yl)-1-(naphthalen-2-yl)pyrrolidine-3-carboxamide], the “Data Range (% inhibition)” value was “E (50-74% (or less than 75%))”.

Take `O=C(N[C@H](CN1CCCC1)[C@H](O)c1ccc2c(c1)OCCO2)C1CCN(C2CCOCC2)C1` (stereo partly drawn) [Compound 9D, N-((1R,2R)-1-(2,3-dihydrobenzo[b][1,4]dioxin-6-yl)-1-hydroxy-3-(pyrrolidin-1-yl)propan-2-yl)-1-(tetrahydro-2H-pyran-4-yl)pyrrolidine-3-carboxamide]: the “Data Range (% inhibition)” value is given as “F (1-49% (or less than 50%))”. In the case of `Cn1ncc2ccc(N3CC[C@@H](C(=O)N[C@H](CN4CCCC4)[C@H](O)c4cc(F)c5c(c4)OCCO5)C3)cc21` [Compound 132, (R)-N-((1R,2R)-1-(8-fluoro-2,3-dihydrobenzo[b][1,4]dioxin-6-yl)-1-hydroxy-3-(pyrrolidin-1-yl)propan-2-yl)-1-(1-methyl-1H-indazol-6-yl)pyrrolidine-3-carboxamide], the IC50 is 1 to 30 nM. Turning to `O=C(N[C@H](CN1CCCC1)[C@H](O)c1cc(F)c2c(c1)OCCO2)[C@@H]1CCN(c2ccc3cc(F)ccc3c2)C1` [Compound 52, (R)-N-((1R,2R)-1-(8-fluoro-2,3-dihydrobenzo[b][1,4]dioxin-6-yl)-1-hydroxy-3-(pyrrolidin-1-yl)propan-2-yl)-1-(6-fluoronaphthalen-2-yl)pyrrolidine-3-carboxamide], the IC50 is 1 to 30 nM. `CN1CCc2ccc(N3CCC(C(=O)N[C@H](CN4CCCC4)[C@H](O)c4ccc5c(c4)OCCO5)C3)cc2C1` (stereo partly drawn) [Compound 63C, N-((1R,2R)-1-(2,3-dihydrobenzo[b][1,4]dioxin-6-yl)-1-hydroxy-3-(pyrrolidin-1-yl)propan-2-yl)-1-(2-methyl-1,2,3,4-tetrahydroisoquinolin-7-yl)pyrrolidine-3-carboxamide]: the “Data Range (% inhibition)” value is given as “F (1-49% (or less than 50%))”. As for `O=C(N[C@H](CN1CCCC1)[C@H](O)c1ccc(OC(F)F)cc1)[C@@H]1CCN(c2ccc(Cl)cc2)C1` [Compound 160, (R)-1-(4-chlorophenyl)-N-((1R,2R)-1-(4-(difluoromethoxy)phenyl)-1-hydroxy-3-(pyrrolidin-1-yl)propan-2-yl)pyrrolidine-3-carboxamide], the IC50 fell in the range of 30 to 100 nM.

On to `O=C(N[C@H](CN1CCCC1)[C@H](O)c1cc(F)c2c(c1)OCCO2)C1CCN(c2ccc(Cl)cc2)C1` (stereo partly drawn) [Compound 2A, 1-(4-chlorophenyl)-N-((1R,2R)-1-(8-fluoro-2,3-dihydrobenzo[b][1,4]dioxin-6-yl)-1-hydroxy-3-(pyrrolidin-1-yl)propan-2-yl)pyrrolidine-3-carboxamide], for which the IC50 fell in the range of 1 to 30 nM. With `O=C(N[C@H](CN1CCCC1)[C@H](O)c1ccc(N2CCOCC2)c(Cl)c1)[C@H]1CCN(c2ccc(Cl)cc2)C1` [Compound 74C, (S)-N-((1R,2R)-1-(3-chloro-4-morpholinophenyl)-1-hydroxy-3-(pyrrolidin-1-yl)propan-2-yl)-1-(4-chlorophenyl)pyrrolidine-3-carboxamide], the “Data Range (% inhibition)” value is on record as “NA (not active—a negative value was generated for % inhibition)”.

Take `O=C(N[C@H](CN1CCCC1)[C@H](O)c1ccc(OC2CC2)c(Cl)c1)[C@@H]1CCN(c2ccc3ccsc3c2)C1` [Compound 91, (R)-1-(benzo[b]thiophen-6-yl)-N-((1R,2R)-1-(3-chloro-4-cyclopropoxyphenyl)-1-hydroxy-3-(pyrrolidin-1-yl)propan-2-yl)pyrrolidine-3-carboxamide]: the half-maximal inhibitory concentration (IC50) was in the range of 1 to 30 nM. `O=C(N[C@H](CN1CCCC1)[C@H](O)c1ccc(OC2CC2)c(F)c1)[C@@H]1CCN(c2ccc(F)cc2)C1` [Compound 69, (R)-N-((1R,2R)-1-(4-cyclopropoxy-3-fluorophenyl)-1-hydroxy-3-(pyrrolidin-1-yl)propan-2-yl)-1-(4-fluorophenyl)pyrrolidine-3-carboxamide]: the IC50 fell in the range of 1 to 30 nM. Consider `O=C(N[C@H](CN1CCCC1)[C@H](O)c1cc(F)c2c(c1)OCCO2)[C@H]1CCN(c2ccc3cc(F)ccc3c2)C1` [Compound 52A, (S)-N-((1R,2R)-1-(8-fluoro-2,3-dihydrobenzo[b][1,4]dioxin-6-yl)-1-hydroxy-3-(pyrrolidin-1-yl)propan-2-yl)-1-(6-fluoronaphthalen-2-yl)pyrrolidine-3-carboxamide], for which the “Data Range (% inhibition)” value was “E (50-74% (or less than 75%))”.

On to `O=C(N[C@H](CN1CCCC1)[C@H](O)c1ccc2c(c1)OCCO2)[C@H]1CCN(c2ccnc(OC3CC3)c2)C1` [Compound 56E, (S)-1-(2-cyclopropoxypyridin-4-yl)-N-((1R,2R)-1-(2,3-dihydrobenzo[b][1,4]dioxin-6-yl)-1-hydroxy-3-(pyrrolidin-1-yl)propan-2-yl)pyrrolidine-3-carboxamide], for which the “Data Range (% inhibition)” value was “F (1-49% (or less than 50%))”. `CC1(C)CCc2ccc(N3CC[C@@H](C(=O)N[C@H](CN4CCCC4)[C@H](O)c4ccc5c(c4)OCCO5)C3)cc2O1` [Compound 71, (R)-N-((1R,2R)-1-(2,3-dihydrobenzo[b][1,4]dioxin-6-yl)-1-hydroxy-3-(pyrrolidin-1-yl)propan-2-yl)-1-(2,2-dimethylchroman-7-yl)pyrrolidine-3-carboxamide]: the IC50 lay within 30 to 100 nM. For `O=C(N[C@H](CN1CCCC1)[C@H](O)c1ccc2c(c1)OCCO2)C1CCN(c2ccccn2)C1` (stereo partly drawn) [Compound 22C, N-((1R,2R)-1-(2,3-dihydrobenzo[b][1,4]dioxin-6-yl)-1-hydroxy-3-(pyrrolidin-1-yl)propan-2-yl)-1-(pyridin-2-yl)pyrrolidine-3-carboxamide], the “Data Range (% inhibition)” value is “F (1-49% (or less than 50%))”.

Take `O=C(N[C@H](CN1CCCC1)[C@H](O)c1ccc2c(c1)OCCO2)[C@H]1CCN(c2ccc3cc(F)ccc3c2Cl)C1` [Compound 88D, (S)-1-(1-chloro-6-fluoronaphthalen-2-yl)-N-((1R,2R)-1-(2,3-dihydrobenzo[b][1,4]dioxin-6-yl)-1-hydroxy-3-(pyrrolidin-1-yl)propan-2-yl)pyrrolidine-3-carboxamide]: the “Data Range (% inhibition)” value was “F (1-49% (or less than 50%))”. With `O=C(N[C@H](CN1CCCC1)[C@H](O)c1ccc(OCCN2CCC2)c(Cl)c1)[C@@H]1CCN(c2ccc(Cl)cc2)C1` [Compound 60, (R)-N-((1R,2R)-1-(4-(2-(azetidin-1-yl)ethoxy)-3-chlorophenyl)-1-hydroxy-3-(pyrrolidin-1-yl)propan-2-yl)-1-(4-chlorophenyl)pyrrolidine-3-carboxamide], the half-maximal inhibitory concentration (IC50) lay within 1 to 30 nM. For `O=C(N[C@H](CN1CCCC1)[C@H](O)c1ccc(OC2CC2)c(Cl)c1)[C@@H]1CCN(c2ccc3c(c2)CCCC3)C1` [Compound 98, (R)-N-((1R,2R)-1-(3-chloro-4-cyclopropoxyphenyl)-1-hydroxy-3-(pyrrolidin-1-yl)propan-2-yl)-1-(5,6,7,8-tetrahydronaphthalen-2-yl)pyrrolidine-3-carboxamide], the “Data Range (% inhibition)” value was “D (75-100%)”. As to `O=C(N[C@H](CN1CCCC1)[C@H](O)c1cc(F)c2c(c1)OCCO2)[C@@H]1CCN(c2ccccn2)C1` [Compound 48, (R)-N-((1R,2R)-1-(8-fluoro-2,3-dihydrobenzo[b][1,4]dioxin-6-yl)-1-hydroxy-3-(pyrrolidin-1-yl)propan-2-yl)-1-(pyridin-2-yl)pyrrolidine-3-carboxamide], the half-inhibitory concentration (IC50) lay within 1 to 30 nM. On to `O=C(N[C@H](CN1CCCC1)[C@H](O)c1ccc2c(c1)OCCO2)[C@H]1CCN(c2ccc3cc(Cl)sc3c2)C1` [Compound 76E, (S)-1-(2-chlorobenzo[b]thiophen-6-yl)-N-((1R,2R)-1-(2,3-dihydrobenzo[b][1,4]dioxin-6-yl)-1-hydroxy-3-(pyrrolidin-1-yl)propan-2-yl)pyrrolidine-3-carboxamide], for which the IC50 lay in the range of 1 to 30 nM. With `O=C(N[C@H](CN1CCC1)[C@H](O)c1ccc(OC2CC2)cc1)[C@H]1CCN(c2ccc3cc(F)ccc3c2)C1` [Compound 159C, (S)-N-((1R,2R)-3-(azetidin-1-yl)-1-(4-cyclopropoxyphenyl)-1-hydroxypropan-2-yl)-1-(6-fluoronaphthalen-2-yl)pyrrolidine-3-carboxamide], the 50% inhibitory concentration (IC50) lay within 100 to 1000 nM. With `O=C(N[C@H](CN1CCCC1)[C@H](O)c1ccc(OC2CC2)c(Cl)c1)[C@@H]1CCN(c2ccc(Cl)c(-c3ccc(F)cc3)c2)C1` [Compound 138, (R)-1-(6-chloro-4′-fluoro-[1,1′-biphenyl]-3-yl)-N-((1R,2R)-1-(3-chloro-4-cyclopropoxyphenyl)-1-hydroxy-3-(pyrrolidin-1-yl)propan-2-yl)pyrrolidine-3-carboxamide], the concentration for half-maximal inhibition (IC50) fell in the range of 30 to 100 nM.

As a reminder, the IC50 is the concentration at which inhibition is half-maximal.
